Test results published in patent US11369113B2, “Vector control compositions, methods and products utilizing same” (Syngenta Participations AG, priority 2017, dated 2022).
Read-outs that look alike come from different tables or passages of the source.

Legend:
Assay type in all cases: in vivo
[1] = tested on: VK7 2014 (An. coluzzii, DDT & pyrethroid resistant); test: Example B4: bottle based cross resistance study (CDC bottle assay), strain VK7 2014; set-up: unit not given here; conditions: 1 h bottle exposure
Experimental: (§1) Based on the “CDC bottle assay” (described at http://www.cdc.gov/malaria/resources/pdf/fsp/ir_manual/ir_cdc_bioassay_en.pdf) 1 ml of ethanol containing a test compound at a defined concentration was added to a 250 ml glass bottle and the bottles were placed on a rolling table to coat the inner surfaces as the solvent evaporated. Once dry, twenty five non-blood fed adult female mosquitoes of the appropriate species and strains (each three day old) were aspirated from the stock culture and gently blown into the exposure bottles. The lid of the bottle was replaced and the bottle placed upright out of direct sun light under standard culture conditions, nominally 26° C. and 60-80% relative humidity.
(§2) A stopwatch was started, and the assessment of the knock-down were made after 15 mins and 60 minutes. A mosquito was said to be knocked down if it was unable to stand, following the CDC definition. The bottles were replaced in an upright position when not being assessed.
(§3) After one hour the mosquitoes were carefully removed from the bottle with an aspirator and placed in a recovery cup. The mosquitoes were supplied with a 10% sucrose solution on a cotton wool bung, and stored under culture conditions. Assessments of the mortality were made after 24 hours.
(§4) Each treatment was replicated a minimum of three times, with the exception of the Banfora strain, where only a single replicate was undertaken, with the mean knockdown or mortality recorded. In each study, a set of bottles was infested with a known insecticide susceptible strain of mosquitoes from the same genera as the resistant strains.

[2] = tested on: Kisumu sus (Anopheles gambiae, susceptible); test: Example B4: bottle based cross resistance study (CDC bottle assay), strain Kisumu sus; conditions: read-out: mean knockdown or mortality (Table B4 does not name the quantity)
Experimental: as §1, §2, §3, §4

[3] = tested on: Aedes aegypti (Yellow Fever Mosquito); test: whole plant or invertebrate; conditions: for mortality at 0.2 ppm / mortality at 2 ppm / mortality at 20 ppm: Aedes aegypti
Experimental: (§5) […] Once the deposits were dry, five non-blood fed adult female Aedes aegypti (between two to five day old) were added to each well, and sustained with a 10% sucrose solution in a cotton wool plug. Assessment of the knockdown was carried our after 1 hour, and mortality after 24 hours and 48 hours.

Anopheles stephensi = test: Example B3: treated 6-well plate contact test, adult female Anopheles stephensi; conditions: for mortality at 0.3125 ppm / mortality at 0.625 ppm / mortality at 1.25 ppm / mortality at 2.5 ppm: Anopheles stephensi; for Knockdown 1 h: mean of two replicates
Experimental: The individual wells of six (6) well tissue culture plates were treated with 250 μl of an ethanol solution containing a test compound at a defined concentration. Once the deposits were dry, ten non-blood fed adult female Anopheles stephensi (each between two to five day old) were added to each well, and sustained with a 10% sucrose solution in a cotton wool plug. Assessment of the knockdown was carried our after 1 hour, and mortality after 24 hours and 48 hours. Each treatment was replicated twice, with the mean mortality recorded.

[4] = tested on: Banfora (An. gambiae, DDT & pyrethroid resistant); test: Example B4: bottle based cross resistance study (CDC bottle assay), strain Banfora; conditions: Anopheles gambiae, read-out: knockdown or mortality (Table B4 does not name the quantity)
Experimental: as §1, §2, §3, §4

[5] = tested on: Tiassalé 13 (An. gambiae, pyrethroid resistant); test: Example B4: bottle based cross resistance study (CDC bottle assay), strain Tiassalé 13; conditions: Anopheles gambiae, read-out: mean knockdown or mortality (Table B4 does not name the quantity)
Experimental: as §1, §2, §3, §4

[6] = tested on: Anopheles stephensi (Indian Malaria Mosquito); test: Example B2: treated 12-well plate contact test, adult female Anopheles stephensi; conditions: for mortality at 0.2 ppm / mortality at 2 ppm / mortality at 20 ppm: Anopheles stephensi
Experimental: as §5, with “Anopheles stephensi” for “Aedes aegypti”

[7] = 0.2 ppm, 24 h, read-out: adult mortality 24 h
[8] = 0.2 ppm, 48 h, read-out: adult mortality 48 h
[9] = 2 ppm, 24 h, read-out: adult mortality 24 h
[10] = 2 ppm, 48 h, read-out: adult mortality 48 h
[11] = 20 ppm, 24 h, read-out: adult mortality 24 h
[12] = 20 ppm, 48 h, read-out: adult mortality 48 h
[13] = Banfora, rate 6.25 ppm, 1 h bottle exposure, single replicate
[14] = Banfora, rate 12.5 ppm, 1 h bottle exposure, single replicate
[15] = Banfora, rate 25 ppm, 1 h bottle exposure, single replicate
[16] = Tiassalé 13, rate 6.25 ppm, 1 h bottle exposure
[17] = Tiassalé 13, rate 12.5 ppm, 1 h bottle exposure
[18] = Tiassalé 13, rate 25 ppm, 1 h bottle exposure
[19] = 24 h, read-out: adult mortality 24 h
[20] = 48 h, read-out: adult mortality 48 h

## CO/C=C(/C(=O)OC)c1ccccc1Oc1nc(Cl)c(C(F)(F)F)s1 [Compound of formula I, Methyl (E)-2-[2-[4-chloro-5-(trifluoromethyl)thiazol-2-yl]oxyphenyl]-3-methoxy-prop-2-enoate]
[1]; VK7 2014, rate 6.25 ppm
  mean knockdown or mortality (Table B4 does not name the quantity): 10
[1]; VK7 2014, rate 12.5 ppm
  mean knockdown or mortality (Table B4 does not name the quantity): 61
[1]; VK7 2014, rate 25 ppm
  mean knockdown or mortality (Table B4 does not name the quantity): 100
[2]; Kisumu sus, rate 6.25 ppm, 1 h bottle exposure
  percent knockdown or mortality at 6.25 ppm: 74%
[2]; Kisumu sus, rate 12.5 ppm, 1 h bottle exposure
  percent knockdown or mortality at 12.5 ppm: 99%
[2]; Kisumu sus, rate 25 ppm, 1 h bottle exposure
  percent knockdown or mortality at 25 ppm: 100%
[3]; 0.2 ppm
  adult knockdown 1 h: 0
[3]; 2 ppm
  adult knockdown 1 h: 20
[3]; 20 ppm
  adult knockdown 1 h: 100
[3]; [7]
  mortality at 0.2 ppm: 20%
[3]; [8]
  mortality at 0.2 ppm: 20%
[3]; [9]
  mortality at 2 ppm: 60%
[3]; [10]
  mortality at 2 ppm: 80%
[3]; [11]
  mortality at 20 ppm: 100%
[3]; [12]
  mortality at 20 ppm: 100%
Anopheles stephensi; 24 h, read-out: Mortality 24 h
  mortality at 0.3125 ppm: 63%
  mortality at 0.625 ppm: 80%
  mortality at 1.25 ppm: 98%
  mortality at 2.5 ppm: 100%
Anopheles stephensi; 48 h, read-out: Mortality 48 h
  mortality at 0.3125 ppm: 65%
  mortality at 0.625 ppm: 82%
  mortality at 1.25 ppm: 100%
  mortality at 2.5 ppm: 100%
Anopheles stephensi; rate 0.3125 ppm
  Knockdown 1 h: 20
Anopheles stephensi; rate 0.625 ppm
  Knockdown 1 h: 43
Anopheles stephensi; rate 1.25 ppm
  Knockdown 1 h: 70
Anopheles stephensi; rate 2.5 ppm
  Knockdown 1 h: 87
[4]; [13]
  knockdown or mortality (%) at 6.25 ppm: 26%
[4]; [14]
  knockdown or mortality (%) at 12.5 ppm: 52%
[4]; [15]
  knockdown or mortality (%) at 25 ppm: 100%
[5]; [16]
  mean knockdown or mortality at 6.25 ppm: 69%
[5]; [17]
  mean knockdown or mortality at 12.5 ppm: 81%
[5]; [18]
  mean knockdown or mortality at 25 ppm: 100%
[6]; 0.2 ppm
  adult knockdown 1 h: 0
[6]; 2 ppm
  adult knockdown 1 h: 80
[6]; 20 ppm
  adult knockdown 1 h: 100
[6]; [19]
  mortality at 0.2 ppm: 20%
  mortality at 2 ppm: 100%
  mortality at 20 ppm: 100%
[6]; [20]
  mortality at 0.2 ppm: 20%
  mortality at 2 ppm: 100%
  mortality at 20 ppm: 100%

## CO/C=C(/C(=O)OC)c1ccccc1Oc1ncc(C(F)(F)F)s1 [Compound of formula II, Methyl (E)-3-methoxy-2-[2-[5-(trifluoromethyl)thiazol-2-yl]oxyphenyl]-prop-2-enoate]
[1]; VK7 2014, rate 6.25 ppm
  mean knockdown or mortality (Table B4 does not name the quantity): 7
[1]; VK7 2014, rate 12.5 ppm
  mean knockdown or mortality (Table B4 does not name the quantity): 18
[1]; VK7 2014, rate 25 ppm
  mean knockdown or mortality (Table B4 does not name the quantity): 100
[2]; 1 h
  percent knockdown or mortality at 6.25 ppm: 61%
  percent knockdown or mortality at 12.5 ppm: 33%
  percent knockdown or mortality at 25 ppm: 100%
[3]; 0.2 ppm
  adult knockdown 1 h: 0
[3]; 2 ppm
  adult knockdown 1 h: 0
[3]; 20 ppm
  adult knockdown 1 h: 100
[3]; [7]
  mortality at 0.2 ppm: 0%
[3]; [8]
  mortality at 0.2 ppm: 0%
[3]; [9]
  mortality at 2 ppm: 0%
[3]; [10]
  mortality at 2 ppm: 0%
[3]; [11]
  mortality at 20 ppm: 100%
[3]; [12]
  mortality at 20 ppm: 100%
Anopheles stephensi; 24 h, read-out: Mortality 24 h
  mortality at 0.3125 ppm: 15%
  mortality at 0.625 ppm: 33%
  mortality at 1.25 ppm: 83%
  mortality at 2.5 ppm: 93%
Anopheles stephensi; 48 h, read-out: Mortality 48 h
  mortality at 0.3125 ppm: 22%
  mortality at 0.625 ppm: 30%
  mortality at 1.25 ppm: 88%
  mortality at 2.5 ppm: 97%
Anopheles stephensi; rate 0.3125 ppm
  Knockdown 1 h: 13
Anopheles stephensi; rate 0.625 ppm
  Knockdown 1 h: 27
Anopheles stephensi; rate 1.25 ppm
  Knockdown 1 h: 48
Anopheles stephensi; rate 2.5 ppm
  Knockdown 1 h: 73
[4]; [13]
  knockdown or mortality (%) at 6.25 ppm: 13%
[4]; [14]
  knockdown or mortality (%) at 12.5 ppm: 33%
[4]; [15]
  knockdown or mortality (%) at 25 ppm: 100%
[5]; [16]
  mean knockdown or mortality at 6.25 ppm: 55%
[5]; [17]
  mean knockdown or mortality at 12.5 ppm: 46%
[5]; [18]
  mean knockdown or mortality at 25 ppm: 100%
[6]; 0.2 ppm
  adult knockdown 1 h: 0
[6]; 2 ppm
  adult knockdown 1 h: 0
[6]; 20 ppm
  adult knockdown 1 h: 100
[6]; [19]
  mortality at 0.2 ppm: 0%
  mortality at 2 ppm: 80%
  mortality at 20 ppm: 100%
[6]; [20]
  mortality at 0.2 ppm: 0%
  mortality at 2 ppm: 100%
  mortality at 20 ppm: 100%

## CC1(C)C(C=C(Cl)Cl)C1C(=O)OCc1cccc(Oc2ccccc2)c1 (stereo not drawn) [Permethrin]
[1]; VK7 2014, rate 6.25 ppm
  mean knockdown or mortality (Table B4 does not name the quantity): 5
[1]; VK7 2014, rate 12.5 ppm
  mean knockdown or mortality (Table B4 does not name the quantity): 3
[1]; VK7 2014, rate 25 ppm
  mean knockdown or mortality (Table B4 does not name the quantity): 7
[2]; 1 h
  percent knockdown or mortality at 5 ppm: 100%
  percent knockdown or mortality at 10 ppm: 100%
  percent knockdown or mortality at 20 ppm: 100%
[4]; 1 h
  knockdown or mortality (%) at 6.25 ppm: 14%
  knockdown or mortality (%) at 12.5 ppm: 38%
  knockdown or mortality (%) at 25 ppm: 45%
[5]; 1 h
  mean knockdown or mortality at 6.25 ppm: 13%
  mean knockdown or mortality at 12.5 ppm: 45%
  mean knockdown or mortality at 25 ppm: 69%
